# In patent US7964629B2, “Inhibitors of isoprenylcysteine carboxyl methyltransferase” (Duke Universtiy, priority 2005, dated 2011):
# Legend:
# [1] = tested on: Icmt−/− mouse embryonic fibroblasts; assay: Cell growth determination, Icmt-deficient fibroblasts; format: cell-based; conditions: 15, 20, 30 μM; 10% serum; six days
# Procedure: (§1) FIGS. 2A-2C. […] Media and drug were replaced daily, and cell growth was monitored for six days. Data represent the mean and standard deviation of four replicate wells. (FIG. 2A) Icmt^+/+ cells; (FIG. 2B) Icmt^−/− cells; (C) Icmt^−/− cells stably transfected with a gene expressing human ICMT (Icmt^−/−/ICMT cells).
# (§2) Cell growth assays were performed in a 96-well plate format. Briefly, 500 to 1000 cells were plated into 96-well plates. After the cells were allowed to attach for 24 h, media was removed and replaced with media containing either compound or vehicle. Media and drug were replaced every 24 h throughout the assay. Cell determinations were made at the times indicated in the respective figure by adding 19 μl of CellTiter 96 AqueousOne solution to each well followed by incubation of the plates in the dark at 37° C. for two hr after which the absorbance at 490 nm was read. Background absorbance from blank wells containing only media with compound or vehicle was subtracted from each test well. Typically, 3-6 replicate wells were employed for each point in each assay.
# [2] = tested on: Rac1 in MDA-MB-231 breast cancer cells; assay: Immunoblot of steady-state Rac level; format: cell-based; conditions: 20 μM, 6 day treatment
# Procedure: The impact of Icmt inhibition on function of the geranylgeranylated GTPases Rho and Rac in cells has been examined. This study was carried out in MD-MBA-231 breast cancer cells. Tumorigenesis and metastatic behavior of these cells is dependent on high levels of Rho GTPases in particular. […] Cells were harvested and lysates containing equal amounts of protein were resolved by SDS-PAGE and subjected to immunoblot analysis with specific antibodies to RhoA (FIG. 7A), or Rac1 (FIG. 7B). As a control, immunoblot analysis for α-tubulin was carried out on all samples.
# Yes-GFP in MDCK cells = assay: Localization of Yes-GFP in MDCK cells (control); format: cell-based; conditions: 10, 20, 30 μM
# Procedure: FIGS. 3A and 3B. Impact of cysmethynil treatment on Ras localization and signaling. FIG. 3A. Mislocalization of GFP Ras in cysmethynil treated cells. […] Live cells were imaged on a spinning disk confocal microscope. FIG. 3B. Impact of cysmethynil treatment on EGF-stimulated protein phosphorylation. […] Where indicated, cells were treated with EGF for the final 10 min prior to harvesting. Cell lysates containing equal amounts of protein were resolved on a 13% SDS-polyacrylamide gel and probed with antiphospho-Akt, antiphospho-p42/44 MAPK or anti-β-tubulin antibody as indicated. MDCK cells stably expressing GFP-H-Ras, GFP-K-Ras or GFP-N-Ras were grown on 35 mm coverslip dishes (MatTek Corporation, Ashland, Mass.) treated with poly-D-lysine. MDCK cells expressing […] were prepared by transient transfection of the Yes-GFP construct (McCabe and Berthiaume, Mol Cell Biol 10:3771-3786 (1999)) using Superfect reagent (Quiagen, Valencia, Calif.) following the manufacturer's instructions. […] Cells were imaged 72 h after drug treatment (24 h for transiently transfected cells) on an Olympus IX70 inverted microscope (Melville, N.Y.) with an UltraView spinning-disk confocal (PerkinElmer LAS, Wellesley, Mass.) and a Krypton/Argon laser, 488 nm line, attached to a cooled-CCD camera (Hamamatsu, Bridgewater, N.J.). […]
# Rce1 protease = molecular target: T1, Rce1 protease (Homo sapiens, UniProt Q9Y256); assay: Rce1 protease inhibition (results not shown); format: biochemical; conditions: concentrations up to 50 μM
# T1 construct: made in house; host or cells: Sf9 insect cells; membranes
# T1 sequence (Q9Y256 1-329): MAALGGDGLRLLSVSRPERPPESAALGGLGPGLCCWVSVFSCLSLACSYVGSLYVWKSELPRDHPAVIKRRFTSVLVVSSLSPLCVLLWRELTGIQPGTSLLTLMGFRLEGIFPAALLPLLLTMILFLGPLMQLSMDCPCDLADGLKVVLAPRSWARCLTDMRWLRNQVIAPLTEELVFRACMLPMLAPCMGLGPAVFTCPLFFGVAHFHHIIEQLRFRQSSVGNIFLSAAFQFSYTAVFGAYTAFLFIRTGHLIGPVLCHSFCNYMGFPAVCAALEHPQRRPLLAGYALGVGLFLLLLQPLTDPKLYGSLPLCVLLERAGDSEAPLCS
# [3] = tested on: DKOB8/GFP colon cancer cells; assay: Soft agar growth assay, DKOB8/GFP; format: cell-based; conditions: three weeks
# Procedure: FIGS. 4A-4C. Overexpression of Icmt rescues EGF-stimulated MAPK activation and anchorage-independent growth in cysmethynil-treated cells. FIG. 4A. Creation of cell lines stably overexpressing Icmt. DKOB8 cells were engineered to stably express either GFP alone or a GFP-Icmt fusion protein. Membrane fractions from GFP and GFP-ICMT expressing lines were assayed for Icmt activity using the BFC assay. FIG. 4B. Overexpression of Icmt restores EGF-stimulated MAPK activation in cysmethynil-treated cells. […] Where indicated, cells were treated with EGF for the final 10 min prior to harvesting. Cell lysates containing equal amounts of protein were resolved on a 13% SDS-polyacrylamide gel and probed with antiphospho-p42/44 MAPK or, as a control, antiphospho NFκB antibody as indicated. FIG. 4C. […] After 3 weeks of growth, colonies were stained with MTT and imaged. Soft agar culture media was prepared with 10% FBS in 1× minimum essential medium (MEM) alpha. […] Cells were harvested by trypsinization at ˜80% confluence, mixed into top agar (10,000 cells/plate; 0.3% noble agar in soft agar culture media) and poured onto prepared plates. […] For each condition, triplicate samples (each consisting of three plates) were prepared. […]
# Icmt−/−/ICMT cells = assay: Cell growth determination, Icmt−/− cells expressing human ICMT; format: cell-based, mouse; conditions: 15, 20, 30 μM; 10% serum; six days
# Procedure: as §1, §2
smiles,measurement,setting,value
"CCCCCCCCn1cc(CC(N)=O)c2cc(-c3cccc(C)c3)ccc21 [cysmethynil, 2-[5-(3-methylphenyl)-1-octyl-1H-indol-3-yl]acetamide]",cell growth,[1],largely unaffected
same,Rac levels reduced,[2],> 80%
same,plasma membrane localization of Yes-GFP,Yes-GFP in MDCK cells,did not affect
same,inhibition of Rce1 protease,Rce1 protease,did not inhibit
same,ability of cells to form colonies in soft agar,[3]; 20 μM,dramatically reducing the ability of cells to form colonies
same,ability to grow in soft agar,[3]; 10 or 20 μM,significantly impaired
same,cell growth,Icmt−/−/ICMT cells,regained sensitivity
